Counter-ions that a name gives are not always drawn.
Key:
Apomorphine Emesis = format: in vivo, beagle dogs; conditions: dog, apomorphine HCl 0.1 mg/kg s.c., protected if no emetic events in 1 h
Method: Mature beagle dogs, individually caged and weighing 10.6-14.5 kg, were used in these experiments. The animals were fed just before being dosed intravenously with drug (mg base/kg) or carrier (0.9% saline; 0.2 ml/kg). Each animal received 0.1 mg/kg apomorphine hydrochloride (1 mg/ml saline; Lilly) subcutaneously thirty minutes after administration of the test compound. […] If the animal had no emetic events, the animal was considered protected.

striatal DOPAC = test: Dopamine Turnover: striatal DOPAC response; format: in vivo, Sprague Dawley rats (male); conditions: rat; for Response of striatal DOPAC, percent change from control: intravenous
Method: Male Sprague Dawley rats were injected intravenously with various doses of test compound and whole brain was removed at a predetermined time after dosing. The striatum was dissected from the brain, homogenized in a buffer/organic solvent mixture, clarified with a centrifuge, and an aliquot of the supernatant analyzed for 3,4-dihydroxyphenylacetic acid (DOPAC) by high performance liquid chromatography coupled with an electrochemical detector. The results are expressed as the percent change from control. The standard deviation of the data generally required a difference of 18% from control to be statistically significant at the 0.05 level as determined by the Student's "t" test. DOPAC is a metabolite of dopamine.

Catalepsy = format: in vivo, Sprague Dawley rats (female); conditions: 20 mg/kg i.v., rat, tested one and two hours later
Method: Female Sprague Dawley rats (Harlen Industries, Indianapolis, Ind.), weighing 160-225 g, were used. The animals (n=6) were injected intravenously with drug (20 mg/kg) or carrier (saline; 2 ml/kg) and were tested one and two hours later. This involved placing the front paws of the rat on a horizontal metal bar suspended 10 cm above the table top and recording the number of seconds, to a maximum of 60, that the animal remains in this position. Each animal was tested three times in succession and the average time the animal remained on the bar was calculated. Student's non-paired "t" test was employed to determine the significance of differences between the control and treated groups.

Dacarbazine Emesis = format: in vivo, beagle dogs; conditions: 1.0 mg/kg IV × 2, dog; dacarbazine 10 mg/kg i.v.; protected if 2 or less emetic events in 5 h
Method: Mature beagle dogs (7-16 kg) were used in these experiments. The animals were individually caged with water available ad libitum. Each dog was offered 300 g of Purina Dog Chow the day of an experiment. Drug (mg base/kg) or carrier (0.9% saline; 0.2 ml/kg) was administered intravenously 30 minutes before and 120 minutes after intravenous bolus administration of 10 mg/kg dacarbazine (10 mg DTIC/ml saline; Miles Pharmaceuticals). […] If the animal suffered 2 or less emetic events, the animal was considered protected.

Cisplatin Emesis = format: in vivo, Beagle dogs; conditions: for ED50: Canis lupus familiaris, iv, dog, drug i.v. 30 min before and 120 min after 3 mg/kg cisplatin i.v., blocked if 2 or less emetic events in 5 h
Method: Mature Beagle dogs of either sex, weighing 7-16 kg, were individually caged with water available ad libitum. Each animal was offered 300 g of Purina Dog Chow the day of an experiment. Drug in varying doses or carrier was administered intravenously 30 minutes before and 120 minutes after intravenous bolus administration of 3 mg/kg cisplatin (Ben Venue Laboratories, Inc., Bedford, Ohio). […] Emesis was considered blocked if the animal suffered 2 or less emetic events. Based upon these observations, ED50 values were determined for each of the compounds tested.

Apomorphine Climbing = format: in vivo, ICR-Swiss mice (male); conditions: for ED50: ip, 0.5 h, mouse, dose yielding climbing index of 100, apomorphine HCl 1 mg/kg s.c. 30 min after drug, read-out: Apomorphine Climbing 50% ED
Method: Male ICR-Swiss mice (Harlan Industries, Indianapolis, Ind.), weighing 25-29 g, were placed in 8×10×16 cm wire cages. After a 1 to 1.5 hour acclimatization period, drug or carrier was administered intraperitoneally. Apomorphine hydrochloride (Lilly; 1 mg/kg) or carrier (saline, 10.0 ml/kg) was administered subcutaneously 30 minutes after test compound administration. Climbing behavior was assessed 20 minutes after apomorphine injection using the following scoring system:
(0) 4 paws on the floor of the cage
(1) 1, 2, or 3 paws grasping a side of the cage
(2) 4 paws grasping a side of the cage.
Climbing indexes were calculated using the formula: [formula] 50% ED values (i.e., the dose of drug which yields a climbing index of 100) were calculated using regression equations.

[1] = very high dosages, beginning prior to cisplatin and continuing through post administration; cited from earlier work

With `O=C(NC[C@@H]1CCCN1)c1cc(Cl)cc2c1OCC2` [Compound 1, (L)-5-chloro-N--(2-pyrrolidinylmethyl)-2,3-dihydrobenzo[b]furan-7-carboxamide hydrochloride] the “Apomorphine-induced emesis: Number Protected/Number Dosed” value (Apomorphine Emesis; 1.0 mg/kg IV) was 0/2, the “Apomorphine-induced emesis: Number Protected/Number Dosed” value (Apomorphine Emesis; 2.0 mg/kg IV) was 2/2 and the “Response of striatal DOPAC, percent change from control” value (shortened to “Response … percent change from control”) (striatal DOPAC; 0.3 mg/kg) was -11.6%. For the same compound, the “Response … percent change from control” value (striatal DOPAC; 1.0 mg/kg) was -0.6%, the “Response … percent change from control” value (striatal DOPAC; 3.3 mg/kg) was -2.5% and the “Response … percent change from control” value (striatal DOPAC; 10 mg/kg) was 91.8%. For the same compound, the “Response … percent change from control” value (striatal DOPAC; 33 mg/kg) was 255.4%, the Catalepsy (Catalepsy; hydrochloride) was “No” and the “Dacarbazine-induced emesis: Number Protected/Number Dosed” value (Dacarbazine Emesis) was 4/4. The ED50 (Cisplatin Emesis) was 0.6 mg/kg and the ED50 (Apomorphine Climbing) was 36.2 mg/kg.
For `Nc1cc2c(c(C(=O)NC[C@@H]3CCCN3)c1)OCC2` [Compound 2, (L)-5-amino-N--(2-pyrrolidinylmethyl)-2,3-dihydrobenzo[b]furan-7-carboxamide hydrochloride], the “Apomorphine-induced emesis: Number Protected/Number Dosed” value (Apomorphine Emesis; 4.0 mg/kg IV) was 0/4, the “Response … percent change from control” value (striatal DOPAC; 0.3 mg/kg) was 0.0% and the “Response … percent change from control” value (striatal DOPAC; 1.0 mg/kg) was -6.5%. For the same compound, the “Response … percent change from control” value (striatal DOPAC; 3.3 mg/kg) was -17.3%, the “Response … percent change from control” value (striatal DOPAC; 10 mg/kg) was 0.0% and the “Response … percent change from control” value (striatal DOPAC; 33 mg/kg) was -10.7%. The Catalepsy (Catalepsy; hydrochloride) was “No”, the “Dacarbazine-induced emesis: Number Protected/Number Dosed” value (Dacarbazine Emesis) was 4/4 and the ED50 (Cisplatin Emesis) was roughly 1.75 mg/kg. The ED50 (Apomorphine Climbing) was 100 mg/kg.
In the case of `Nc1c(Cl)cc(C(=O)NC[C@@H]2CCCN2)c2c1CCO2` [Compound 3, (L)-4-amino-5-chloro-N--(2-pyrrolidinylmethyl)-2,3-dihydrobenzo[b]furan-7-carboxamide hydrochloride], the “Apomorphine-induced emesis: Number Protected/Number Dosed” value (Apomorphine Emesis; 1.0 mg/kg IV) is reported as 0/4, the “Apomorphine-induced emesis: Number Protected/Number Dosed” value (Apomorphine Emesis; 2.0 mg/kg IV) is reported as 0/4 and the “Apomorphine-induced emesis: Number Protected/Number Dosed” value (Apomorphine Emesis; 4.0 mg/kg IV) is reported as 0/4. The “Response … percent change from control” value (striatal DOPAC; 0.3 mg/kg) was -14.4%, the “Response … percent change from control” value (striatal DOPAC; 1.0 mg/kg) was -10.0% and the “Response … percent change from control” value (striatal DOPAC; 3.3 mg/kg) was -6.2%. The “Response … percent change from control” value (striatal DOPAC; 10 mg/kg) was -2.7%, the “Response … percent change from control” value (striatal DOPAC; 33 mg/kg) was 6.4% and the Catalepsy (Catalepsy; hydrochloride) was “No”. The “Dacarbazine-induced emesis: Number Protected/Number Dosed” value (Dacarbazine Emesis) was 4/4, the ED50 (Cisplatin Emesis) was roughly 0.42 mg/kg and the ED50 (Apomorphine Climbing) was 75 mg/kg.
With `COc1cc(N)c(Cl)cc1C(=O)NC[C@@H]1CCCN1` [Compound 4, (L)-4-amino-5-chloro-2-methoxy-N--(2-pyrrolidinylmethyl)benzamide hydrochloride] the “Apomorphine-induced emesis: Number Protected/Number Dosed” value (Apomorphine Emesis; 1.0 mg/kg IV) was 0/4, the “Response … percent change from control” value (striatal DOPAC; 0.3 mg/kg) was -1.9% and the “Response … percent change from control” value (striatal DOPAC; 1.0 mg/kg) was -3.3%. For the same compound, the “Response … percent change from control” value (striatal DOPAC; 3.3 mg/kg) was -3.7%, the “Response … percent change from control” value (striatal DOPAC; 10 mg/kg) was 13.7% and the “Response … percent change from control” value (striatal DOPAC; 33 mg/kg) was 41.6%. For the same compound, the Catalepsy (Catalepsy; hydrochloride) was “No”, the ED50 (Cisplatin Emesis) was 1 mg/kg and the ED50 (Apomorphine Climbing) was 44.5 mg/kg.
In the case of `CCN1CCCC1CNC(=O)c1cc(Cl)cc2c1OCC2` (centres unmarked) [Compound C-1, 5-chloro-N--(1-ethyl-2-pyrrolidinylmethyl)-2,3-dihydrobenzo[b]furan-7-carboxamide hydrochloride], the Catalepsy (Catalepsy) is reported as “Yes”, the ED50 (Cisplatin Emesis) is reported as 1 mg/kg and the ED50 (Apomorphine Climbing) is reported as 0.91 mg/kg.
For `CCN1CCCC1CNC(=O)c1cc(N)cc2c1OCC2` (centres unmarked) [Compound C-2, 5-amino-N--(1-ethyl-2-pyrrolidinylmethyl)-2,3-dihydrobenzo[b]furan-7-carboxamide hydrochloride], the Catalepsy (Catalepsy) was “No”, the ED50 (Cisplatin Emesis) was 2.5 mg/kg and the ED50 (Apomorphine Climbing) was 10.4 mg/kg.
With `CCN1CCCC1CNC(=O)c1cc(Cl)c(N)c2c1OCC2` (centres unmarked) [Compound C-3, 4-amino-5-chloro-N--(1-ethyl-2-pyrrolidinylmethyl)-2,3-dihydrobenzo[b]furan-7-carboxamide fumarate] the Catalepsy (Catalepsy) was “Yes”, the ED50 (Cisplatin Emesis) was 0.7 mg/kg and the ED50 (Apomorphine Climbing) was 1.5 mg/kg.
For `CCN1CCCC1CNC(=O)c1cc(Cl)c(N)cc1OC` (centres unmarked) [Compound C-4, 4-amino-5-chloro-2-methoxy-N--(1-ethyl-2-pyrrolidinylmethyl)benzamide], the Catalepsy (Catalepsy) was “Yes”, the ED50 (Cisplatin Emesis) was 1 mg/kg and the ED50 (Apomorphine Climbing) was 0.44 mg/kg.
With `CCN(CC)CCNC(=O)c1cc(Cl)c(N)cc1OC` [Metoclopramide, metoclopramide, reference compound] the “Apomorphine-induced emesis: Number Protected/Number Dosed” value (Apomorphine Emesis; 0.125 mg/kg IV) was 2/4, the “Apomorphine-induced emesis: Number Protected/Number Dosed” value (Apomorphine Emesis; 1.0 mg/kg IV) was 4/4 and the “Response … percent change from control” value (striatal DOPAC; 0.1 mg/kg) was 1.2%. The “Response … percent change from control” value (striatal DOPAC; 0.3 mg/kg) was 12.4%, the “Response … percent change from control” value (striatal DOPAC; 1.0 mg/kg) was 81.2% and the “Response … percent change from control” value (striatal DOPAC; 3.3 mg/kg) was 192.0%. The “Response … percent change from control” value (striatal DOPAC; 10 mg/kg) was 384.6%, the “dopamine antagonism suggested by Table 1 (in words)” value (striatal DOPAC; striatal DOPAC, i.v.) was “exhibits strong dopamine antagonism at doses of 1.0 mg/kg and greater” and the “effect on emesis caused by cisplatin (in words)” value [1] was “effective in alleviating emesis caused by cisplatin”. For the same compound, the “Dacarbazine-induced emesis: Number Protected/Number Dosed” value (Dacarbazine Emesis) was 3/4, the ED50 (Cisplatin Emesis) was 1.1 mg/kg and the “cisplatin antiemetic activity (in words)” value (Cisplatin Emesis; data in Table 2) was “effective antiemetics”. For the same compound, the “dopamine antagonist activity from Table 2 (in words)” value (Apomorphine Climbing; apomorphine climbing and catalepsy data) was “strong dopamine antagonists” and the ED50 (Apomorphine Climbing) was 1.7 mg/kg.

From US4772459A, “Method for controlling emesis caused by chemotherapeutic agents and antiemetic agents useful therein” (priority 1986, dated 1988)
